US5324722A, “2-, 3-, 5-, 8-, 10- and/or 11-substituted dibenzoxazepine compounds, pharmaceutical compositions and methods for treating pain” (G. D. Searle & Co., priority 1993, dated 1994)

Assays:
mice = experiment: Writhing Assay (PBQ-induced writhing); type: in vivo; details: for WRITHING ASSAY Number Out of Ten I.G. / WRITHING ASSAY Number Out of Ten S.C.: number of mice out of ten with analgesia, 30 minutes before PBQ i.p., male albino mice; for WRITHING ASSAY Number Out of Ten I.G.: 30 mg per kilogram intragastric; for WRITHING ASSAY Number Out of Ten S.C.: 30 mg per kilogram subcutaneous
Source text: The Writhing Assay is one of the most widely-used experimental procedures for measuring the analgesic activity of different narcotic and nonnarcotic analgesic agents, and involves the continuous, chemically-induced pain of visceral origin to an animal, such as a mouse orrat. [Gyires et al., Arch. int. Pharmacodyn, 267, 131-140 (1984); C. Vander Wende et al., Fed. Proc., 15, 494 (1956); Koster et al., Fed. Proc., 18, 412 (1959); and Witken et al., J. Pharmacol. exp. Ther., 133, 400-408 (1961).] Chemicals which may be used to induce this pain include phenylbenzoquinone (PBQ) and acetic acid. As a result of the chemical irritation to the animal, a characteristic stretching and writhing of the animal (dorsiflexion of the animal's back, extension of its hindlimbs and the strong contraction of its abdominal musculature) will generally occur. […] Drugs which reduce the number of writhes of the animal appear to restore the normal nociceptive threshold of the animal.
Charles River male albino mice, weighing 20 to 30 grams were used in this assay.
Thirty minutes after subcutaneous or intragastric administration to ten mice of 30 mg per kilogram of body weight of a compound of the present invention ("test compound"), […] per 10 g of body weight of a 0.025% w/v solution of PBQ was injected intraperitoneally into each mouse. Ten mice which were given saline in place of a test compound of the invention were used as a control group.
Five minutes later, each mouse was individually placed into a glass beaker for observation, and the number of writhes occurring during the following ten-minute period was counted.
A test compound was considered to have produced analgesia in a mouse if, in accordance with the conditions set forth above, and under the test criteria employed for this assay, after the administration of 30 mg per kilogram of body weight of a compound of the present invention to the mouse, the number of writhes elicited by a mouse injected with PBQ was equal to, or less than, one-half the median number of writhes recorded for the saline-treated control group of mice that day, as described by Taber in "Predictive Value of Analgesic Assays in Mice and Rats," Advances in BiochemicaI Psychopharmacology, 8, 191 (1974).
The results for the particular compounds of the present invention analyzed in this assay, and discussed in the examples identified below which correspond thereto, are presented in Table 1 hereinbelow under the heading "WRITHING ASSAY." The numbers in fractions indicate the number of mice out of ten in which a test compound produced analgesia. […] (b) Prostaglandin (PGE) Antagonism Assay

[1] = target: T1, prostaglandin E2-induced contractions of segments of guinea pig ileum (Cavia porcellus, UniProt A0A286XHJ6); experiment: Prostaglandin (PGE) Antagonism Assay in guinea pig ileum; type: cell-based; details: pA2 against prostaglandin E2-induced contractions; initial concentration 3 micromolar; estimated or by Schild plot
T1 construct: Segments of ileum about 2 cm long were then cut and mounted in a 10 mL tissue bath; from tissue; host or cells: guinea pig ileum segments
T1 sequence (A0A286XHJ6 1-405): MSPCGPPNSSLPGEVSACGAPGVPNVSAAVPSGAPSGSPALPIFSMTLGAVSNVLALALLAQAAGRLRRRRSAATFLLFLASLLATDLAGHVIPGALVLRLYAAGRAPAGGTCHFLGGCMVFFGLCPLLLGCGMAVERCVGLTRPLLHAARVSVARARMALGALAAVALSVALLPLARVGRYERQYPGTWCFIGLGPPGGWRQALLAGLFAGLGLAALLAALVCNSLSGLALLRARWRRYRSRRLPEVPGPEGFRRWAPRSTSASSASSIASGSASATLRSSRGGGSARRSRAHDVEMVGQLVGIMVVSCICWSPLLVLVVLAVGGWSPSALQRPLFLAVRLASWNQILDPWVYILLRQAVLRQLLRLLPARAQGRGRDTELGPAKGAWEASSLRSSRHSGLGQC
Experimental: In order to determine the effectiveness of several of the compounds of the present invention ("test compounds") as prostaglandin E2 antagonists,a prostaglandin antagonism assay was conducted, as described below, to determine the ability of these compounds to inhibit prostaglandin E2 -induced contractions of segments of guinea pig ileum.
Male albino guinea pigs weighing 200 to 500 grams were sacrificed by cervical dislocation. The ilea were then quickly removed from the guinea pigs and placed in a modified Tyrode solution, a solution which is known to those skilled in the art, containing one-half of the usual amount of magnesium ions.
Segments of ileum about 2 cm long were then cut and mounted in a 10 mL tissue bath containing the modified Tyrode solution. The solution was maintained at 37° C. and aerated with a gaseous mixture of 95% oxygen and 5% carbon dioxide. Data for a control prostaglandin E2 dose response curve plotting concentration of prostaglandin E2 versus the intensity of contractions, detected isotonically, was then obtained by experimentally adjusting the dose of the prostaglandin E2 being injected into the tissue bath, in a manner known by those of skill in the art.
Solutions or suspensions containing an initial concentration (3 micromolar) of a test compound in modified Tyrode solution ("test solutions/suspensions") were then separately substituted for the control bath solution. Each test solution/suspension was then kept in constant contact with the ileum tissue, except for brief periods to drain the bath in preparation for rinsing with fresh test solution/suspension. A second prostaglandin E2 dose response curve was then generated for prostaglandin E2 in the presence of a test compound.
A dose ratio of EC50 doses was then calculated from the results of each test in a manner known by those of skill in the art. A test compound was determined to be "active" if the initial concentration used yielded at least a two-fold shift (dose ratio greater than or equal to 2) in the dose response curve for 10 prostaglandin E2.

PGE ANTAGONISM IN GUINEA PIG ILEUM (pA2 value) [1]	Kb [1] [µM]	SMILES	relative analgesic potency in the Writhing Assay (mice; among the compounds of the invention tested, 30 mg per kilogram, mice)	WRITHING ASSAY Number Out of Ten I.G. (mice)	WRITHING ASSAY Number Out of Ten S.C. (mice)
–	–	CCS(=O)(=O)CCC(=O)NNC(=O)C1c2ccccc2Oc2ccc(Cl)cc2N1C(=O)OC(C)(C)C (stereo not drawn) [Example 7, 8-chlorodibenz[b,f][1,4]oxazepine-10,11(11H)-dicarboxylic acid, 10-(1,1-dimethylethyl) ester, 11-[2-[3-(ethylsulfonyl)-1-oxopropyl]hydrazide]]	most potent	5/10	3/10
6.03	–	CCS(=O)(=O)CCC(=O)NNC(=O)N1c2cc(Cl)ccc2Oc2ccccc2C1C (stereo not drawn) [Example 13, 8-chloro-11-methyldibenz[b,f][1,4]oxazepine-10(11H)-carboxylic acid, 2-[3-(ethylsulfonyl)-1-oxopropyl]hydrazide]	–	5/10	5/10
–	1.29	CCC1c2ccccc2Oc2ccc(Cl)cc2N1C(=O)NNC(=O)CCS(=O)(=O)CC (stereo not drawn) [Example 17, 8-chloro-11-ethyldibenz[b,f][1,4]oxazepine-10(11H)-carboxylic acid, 2-[3-(ethylsulfonyl)-1-oxopropyl]hydrazide]	–	1/10	2/10
5.94	–	CCCC1c2ccccc2Oc2ccc(Cl)cc2N1C(=O)NNC(=O)CCS(=O)(=O)CC (stereo not drawn) [Example 21, 8-chloro-11-propyldibenz[b,f][1,4]oxazepine-10(11H)-carboxylic acid. 2-[3-(ethylsulfonyl)-1-oxopropyl]hydrazide]	–	3/10	1/10
